Measurements published in patent US11414424B2, “Cardiac sarcomere inhibitors” (Cytokinetics, Inc., priority 2018, dated 2022).

These compounds were tested on bovine cardiac myofibrils (assay: Myofibril assay: PK/LDH-coupled steady-state ATPase activity of skinned bovine cardiac myofibrils). Details: Ca2+ activating to 75% of maximal rate.
Assay type: biochemical
Summary of the method: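 Steady-state ATPase of detergent-skinned bovine left-ventricular myofibrils (1 mg/mL), PK/LDH-coupled NADH read at 340 nm, in PIPES/MgCl2 buffer pH 6.8 with 50 μM ATP, 0.6 mM EGTA and CaCl2 set for 50% or 75% activation. Inhibition of activity measured.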

| CDMF75 IC15 | SMILES |
| --- | --- |
| 7.1 µM | CNC(=O)N1CC2(C1)C(=O)N(c1ccc(Cl)cn1)CC(=O)N2Cc1ccc(C(F)(F)F)cc1 [Compound 156, 8-(5-chloropyridin-2-yl)-N-methyl-6,9-dioxo-5-(4-(trifluoromethyl)benzyl)-2,5,8-triazaspiro[3.5]-nonane-2-carboxamide] |
| 5.5 µM | CNC(=O)N1CC2(C1)C(=O)N(c1ccc(C(F)F)cc1)CC(=O)N2Cc1ccc(C(F)(F)F)cc1 [Compound 157, 8-(4-(difluoromethyl)-phenyl)-N-methyl-6,9-dioxo-5(4-(trifluoromethyl)-benzyl)-2,5,8-triazaspiro-[3.5]nonane-2-carboxamide] |
| 9.7 µM | CNC(=O)N1CC2(C1)C(=O)N(c1ccc(C3CC3)cc1)CC(=O)N2Cc1ccc(C(F)(F)F)cc1 [Compound 158, 8-(4-cyclopropylphenyl)-N-methyl-6,9-dioxo-5-(4-(trifluoromethyl)benzyl)-2,5,8-triazaspiro[3.5]-nonane-2-carboxamide] |
| 3.2 µM | CNC(=O)N1CC2(C1)C(=O)N(c1ccc(OC(F)F)cc1)CC(=O)N2Cc1ccc(C(F)(F)F)cc1 [Compound 159, 8-(4-(difluoromethoxy)-phenyl)-N-methyl-6,9-dioxo-5-(4-(trifluoro-methyl)benzyl)-2,5,8-triazaspiro[3.5]nonane-2-carboxamide] |
| 7.1 µM | CNC(=O)N1CC2(C1)C(=O)N(c1ccc(OC(F)(F)F)cc1)CC(=O)N2Cc1ccc(C(F)(F)F)cc1 [Compound 160, N-methyl-6,9-dioxo-8-(4-(trifluoromethoxy)-phenyl)-5-(4-(trifluoromethyl)benzyl)-2,5,8-triazaspiro[3.5]-nonane-2-carboxamide] |
| 4.7 µM | C=C(C)c1ccc(N2CC(=O)N(Cc3ccc(C(F)(F)F)cc3)C3(CN(C(=O)NC)C3)C2=O)cc1 [Compound 161, N-methyl-6,9-dioxo-8-(4-(prop-1-en-2-yl)phenyl)-5-(4-(trifluoromethyl)benzyl)-2,5,8-triazaspiro[3.5]-nonane-2-carboxamide] |
| 7.3 µM | CNC(=O)N1CC2(C1)C(=O)N(c1cccc(Cl)c1)CC(=O)N2Cc1ccc(C(F)(F)F)cc1 [Compound 163, 8-(3-chlorophenyl)-N-methyl-6,9-dioxo-5-(4-(trifluoromethyl)benzyl)-2,5,8-triazaspiro[3.5]-nonane-2-carboxamide] |
| 1.6 µM | CNC(=O)N1CC2(C1)C(=O)N(c1ccc(C#N)cc1)CC(=O)N2Cc1ccc(Cl)cc1 [Compound 164, 5-(4-chlorobenzyl)-8-(4-cyanophenyl)-N-methyl-6,9-dioxo-2,5,8-triazaspiro-[3.5]nonane-2-carboxamide] |
| 1.4 µM | CNC(=O)N1CC2(C1)C(=O)N(c1ccc(-c3noc(C(F)F)n3)cc1)CC(=O)N2Cc1ccc(C(F)(F)F)cc1 [Compound 165, 8-(4-(5-(difluoromethyl)-1,2,4-oxadiazol-3-yl)-phenyl)-N-methyl-6,9-dioxo-5-(4-(trifluoromethyl)-benzyl)-2,5,8-triazaspiro-[3.5]nonane-2-carboxamide] |
| 2.4 µM | CNC(=O)N1CC2(C1)C(=O)N(c1ccc(Cl)c(C)c1)CC(=O)N2Cc1ccc(C(F)(F)F)cc1 [Compound 166, 8-(4-chloro-3-methyl-phenyl)-N-methyl-6,9-dioxo-5-(4-(trifluoromethyl)-benzyl)-2,5,8-triazaspiro-[3.5]nonane-2-carboxamide] |
| 1.3 µM | CNC(=O)N1CC2(C1)C(=O)N(c1ccc(C#N)c(C)c1)CC(=O)N2Cc1ccc(C(F)(F)F)cc1 [Compound 167, 8-(4-cyano-3-methyl-phenyl)-N-methyl-6,9-dioxo-5-(4-(trifluoromethyl)-benzyl)-2,5,8-triazaspiro-[3.5]nonane-2-carboxamide] |
| 0.3 µM | CNC(=O)N1CC2(C1)C(=O)N(c1ccc(Cl)cc1F)CC(=O)N2Cc1ccc(C(F)(F)F)cc1 [Compound 168, 8-(4-chloro-2-fluoro-phenyl)-N-methyl-6,9-dioxo-5-(4-(trifluoro-methyl)benzyl)-2,5,8-triazaspiro[3.5]nonane-2-carboxamide] |
| 2.9 µM | CNC(=O)N1CC2(C1)C(=O)N(c1ccc(OC)c(F)c1)CC(=O)N2Cc1ccc(C(F)(F)F)cc1 [Compound 170, 8-(3-fluoro-4-methoxy-phenyl)-N-methyl-6,9-dioxo-5-(4-(trifluoromethyl)-benzyl)-2,5,8-triazaspiro-[3.5]nonane-2-carboxamide] |
| 2.0 µM | CNC(=O)N1CC2(C1)C(=O)N(c1ccc(OC(F)F)c(F)c1)CC(=O)N2Cc1ccc(C(F)(F)F)cc1 [Compound 171, 8-(4-(difluoromethoxy)-3-fluorophenyl)-N-methyl-6,9-dioxo-5-(4-(trifluoromethyl)benzyl)-2,5/8-triazaspiro[3.5]-nonane-2-carboxamide] |
| 18.5 µM | CNC(=O)N1CC2(C1)C(=O)N(c1ccc(C(=O)c3ccccc3)cc1)CC(=O)N2Cc1ccc(C(F)(F)F)cc1 [Compound 172, 8-(4-benzoylphenyl)-N-methyl-6,9-dioxo-5-(4-(trifluoromethyl)benzyl)-2,5,8-triazaspiro[3.5]-nonane-2-carboxamide] |
| 0.6 µM | CNC(=O)N1CC2(C1)C(=O)N(c1ccc(C#N)cc1F)CC(=O)N2Cc1ccc(C2(C(F)(F)F)N=N2)cc1 [Compound 173, 8-(4-cyano-2-fluorophenyl)-N-methyl-6,9-dioxo-5-(4-(3-(trifluoromethyl)-3H-diazirin-3-yl)benzyl)-2,5,8-triazaspiro[3.5]nonane-2-carboxamide] |
| 8.0 µM | CC(C)C(=O)N1CC2(C1)C(=O)N(c1ccc(C#N)cc1F)CC(=O)N2Cc1ccc(C(F)(F)F)cc1 [Compound 174, 3-fluoro-4-(2-isobutyryl-6,9-dioxo-5-(4-(trifluoromethyl)benzyl)-2,5,8-triazaspiro[3.5]nonan-8-yl)benzonitrile] |
| 1.2 µM | CC(=O)N1CC2(C1)C(=O)N(c1ccc(C#N)cc1F)CC(=O)N2Cc1ccc(Cl)cc1 [Compound 175, 4-(2-acetyl-5-(4-chlorobenzyl)-6,9-dioxo-2,5,8-triazaspiro[3.5]nonan-8-yl)-3-fluorobenzonitrile] |
| 8.5 µM | CC(=O)N1CC2(C1)C(=O)N(c1ccc(C#N)cc1F)CC(=O)N2Cc1ccc(F)cc1 [Compound 176, 4-(2-acetyl-5-(4-fluoro-benzyl)-6,9-dioxo-2,5,8-triazaspiro[3.5]nonan-8-yl)-3-fluorobenzonitrile] |
| 1.8 µM | CNC(=O)N1CC2(C1)C(=O)N(c1ccc3oc(=O)ccc3c1)CC(=O)N2Cc1ccc(C(F)(F)F)cc1 [Compound 177, N-methyl-6,9-dioxo-8-(2-oxo-2H-chromen-6-yl)-5-(4-(trifluoromethyl)benzyl)-2,5,8-triazaspiro[3.5]-nonane-2-carboxamide] |
| 0.8 µM | C#Cc1ccc(N2CC(=O)N(Cc3ccc(C4(C(F)(F)F)N=N4)cc3)C3(CN(C(=O)NC)C3)C2=O)c(F)c1 [Compound 178, 8-(4-ethynyl-2-fluoro-phenyl)-N-methyl-6,9-dioxo-5-(4-(3-(trifluoromethyl)-3H-diazirin-3-yl)benzyl)-2,5,8-triazaspiro[3.5]nonane-2-carboxamide] |
| 1.6 µM | N#Cc1ccc(N2CC(=O)N(Cc3ccc(C(F)(F)F)cc3)C3(CN(C(=O)C4CCC4)C3)C2=O)c(F)c1 [Compound 180, 4-(2-(cyclobutanecarbonyl)-6,9-dioxo-5-(4-(trifluoromethyl)benzyl)-2,5,8-triazaspiro[3.5]nonan-8-yl)-3-fluorobenzonitrile] |
| 6.2 µM | CNC(=O)N1CC2(C1)C(=O)N(c1ccc3oc(=O)ccc3c1)CC(=O)N2Cc1ccc(C2(C(F)(F)F)N=N2)cc1 [Compound 181, N-methyl-6,9-dioxo-8-(2-oxo-2H-chromen-6-yl)-5-(4-(3-(trifluoromethyl)-3H-diazirin-3-yl)benzyl)-2,5,8-triazaspiro[3.5]-nonane-2-carboxamide] |
| 2.9 µM | CC(=O)N1CC2(C1)C(=O)N(c1ncc(Cl)cc1F)CC(=O)N2Cc1ccc(Cl)cc1 [Compound 182, 2-acetyl-8-(5-chloro-3-fluoropyridin-2-yl)-5-(4-chlorobenzyl)-2,5,8-triazaspiro[3.5]nonane-6,9-dione] |
| 4.6 µM | CNC(=O)N1CCC2(C1)C(=O)N(c1ccc(C#N)cc1)CC(=O)N2Cc1ccc(C(F)(F)F)cc1 (stereo not drawn) [Compound 183, 9-(4-cyanophenyl)-N-methyl-7,10-dioxo-6-(4-(trifluoromethyl)benzyl)-2,6,9-triazaspiro[4.5]-decane-2-carboxamide] |
| 25.5 µM | CNC(=O)N1CCC2(C1)C(=O)N(c1ccc(C#N)nc1)CC(=O)N2Cc1ccc(C(F)(F)F)cc1 (stereo not drawn) [Compound 184, 9-(6-cyanopyridin-3-yl)-N-methyl-7,10-dioxo-6-(4-(trifluoromethyl)benzyl)-2,6,9-triazaspiro[4.5]-decane-2-carboxamide] |
| 3.2 µM | CNC(=O)N1CCC2(C1)C(=O)N(c1ccc(C#N)cc1)CC(=O)N2Cc1ccc(Cl)cc1 (stereo not drawn) [Compound 185, 6-(4-chlorobenzyl)-9-(4-cyanophenyl)-N-methyl-7,10-dioxo-2,6,9-triazaspiro[4.5]decane-2-carboxamide] |
| 15.8 µM | CC(=O)N1CC2(C1)C(=O)N(c1ccc(C#N)cc1)CC(=O)N2Cc1ccc(C(F)(F)F)cc1 [Compound 186, 4-(2-acetyl-6,9-dioxo-5-(4-(trifluoromethyl)benzyl)-2,5,8-triazaspiro[3.5]nonan-8-yl)benzonitrile] |

| SMILES | CDMF75 IC15 |
| --- | --- |
| CNC(=O)N1CC2(C1)C(=O)N(c1ccc(C#N)c(F)c1)CC(=O)N2Cc1ccc(C(F)(F)F)cc1 [Compound 162, 8-(4-cyano-3-fluorophenyl)-N-methyl-6,9-dioxo-5-(4-(trifluoromethyl)benzyl)-2,5,8-triazaspiro[3.5]-nonane-2-carboxamide] | 0.4 µM |
| CNC(=O)N1CC2(C1)C(=O)N(c1ccc(C#N)cc1F)CC(=O)N2Cc1ccc(C(F)(F)F)cc1 [Compound 169, 8-(4-cyano-2-fluorophenyl)-N-methyl-6,9-dioxo-5-(4-(trifluoromethyl)benzyl)-2,5,8-triazaspiro[3.5]nonane-2-carboxamide] | 0.2 µM |
